The text below walks through data of patent US5089529A, “Butanol derivatives” (Nippon Shinyaku Co., Ltd., priority 1983, dated 1992).

Read-outs that look alike come from different tables or passages of the source.

Experiment [1] concerns Arrhythmia in Dogs Caused by Digitalis. The experiment can be described thus: Arrhythmia in dogs caused by digitalis (digoxin). It counts as in vivo, Beagle dogs. The following applies: anesthetized dogs. The text has this: Beagle dogs weighing 10 to 14 kg were used. […] The arrhythmia was judged by an electrocardiographic recording (lead II) and, when there was an appearance of descending or ascending big QRS complex, it was judged that ventricular arrhythmia appeared.

In experiment [2] the test system is Arrhythmia in Mice Caused by Aconitine. In words: Action against arrhythmia in mice caused by aconitine. It is filed as in vivo, ddY-Male mice. Particulars: Mus musculus. How it is done: A method by Nwangwu, et al (P.U. Nwangwu, T.L. Holcslow and S.J. Stohs: Arch. int. Pharmacodyn. 229, 219-226, 1977) was partly modified and the experiment was carried out. ddY-Male mice weighing 25 to 30 grams were used. One group was composed of four mice.
Arrhythmia was induced by infusion of aconitine at a concentration of 5 μg/ml in saline into a tail vein at the rate of 0.25 ml/min using a perfusion pump in mice anesthetized with Nembutal. Test drugs were administered orally or intraperitoneally 30 minutes prior to the start of infusion of aconitine. Incidentally, lidocaine was given intraperitoneally 15 minutes prior to administration of aconitine.
The status of arrhythmia was judged by an electrocardiographic recording (lead II) and, when the onset time of the arrhythmia was delayed more than "average time of untreated group plus 2SD", it was judged to have antiarrhythmic action. Then ED50 values were calculated by Weil's method from the effective rate at each dosage level.

In the case of `CC(C)CNCCCC(O)(c1ccccc1)c1ccccc1` [Example 10, 1,1-Diphenyl-4-isobutylamino-1-butanol], in experiment [1] (2 mg/kg intravenous), the “Duration of Action” value came to 500 s and the “Efficacy Ratio” value was 58.7%. The ED50 in experiment [2] (ip, read-out: ED50, i.p.) turned out to be 11.5 mg/kg. The ED50 in experiment [2] (po, read-out: ED50, p.o.) is 20.3 mg/kg.

On to `CC(C)CN(CCCC(O)(c1ccccc1)c1ccccc1)CC(C)C` [Example 1, 4-Diisobutylamino-1,1-diphenyl-1-butanol], for which the “Duration of Action” value in experiment [1] (1 mg/kg intravenous) was 400 s; in experiment [1] (2 mg/kg intravenous), 515 s. The “Efficacy Ratio” value is recorded as 50.0% in experiment [1] (1 mg/kg intravenous) and 62.5% in experiment [1] (2 mg/kg intravenous). Further, the median effective dose (ED50) turned out to be 14.9 mg/kg in experiment [2] (ip, read-out: ED50, i.p.) and 17.7 mg/kg in experiment [2] (po, read-out: ED50, p.o.).

As to `CC(C)N(CCC(C(N)=O)(c1ccccc1)c1ccccn1)C(C)C` (centres unmarked) [Disopyramide, reference compound], in experiment [1] (2 mg/kg intravenous), the “Duration of Action” value was 365 s. In addition, in experiment [1] (2 mg/kg intravenous), the “Efficacy Ratio” value was 57.1%. Further, the ED50 in experiment [2] (ip, read-out: ED50, i.p.) was 12.5 mg/kg; in experiment [2] (po, read-out: ED50, p.o.), 29.7 mg/kg.

Turning to `CCN(CC)CC(=O)Nc1c(C)cccc1C` [Lidocaine, reference compound], in experiment [1] (2 mg/kg intravenous), the “Duration of Action” value came out at 350 s and the “Efficacy Ratio” value was 50.0%. In addition, the ED50 in experiment [2] (ip, read-out: ED50, i.p.) worked out at 35.4 mg/kg.

The ED50 is the dose at which the effect has come halfway, by size or by number of responders.
